Assay results: patent US5171748A, “Benz[4,5]imidazole-containing angiotensin antagonists” (Imperial Chemical Industries plc, priority 1989, dated 1992)

Tests used:
[1] = biological target: T1, AII-induced contractions of isolated rabbit aorta (Oryctolagus cuniculus, UniProt P34976); experiment: Test B: antagonism of AII-induced contractions of isolated rabbit aorta; type: cell-based; details: 37° C., read-out: pA2 (converted)
T1 construct: isolated rabbit aorta, maintained in a physiological salt solution; from tissue; host or cells: isolated rabbit aorta
T1 sequence (P34976 1-359): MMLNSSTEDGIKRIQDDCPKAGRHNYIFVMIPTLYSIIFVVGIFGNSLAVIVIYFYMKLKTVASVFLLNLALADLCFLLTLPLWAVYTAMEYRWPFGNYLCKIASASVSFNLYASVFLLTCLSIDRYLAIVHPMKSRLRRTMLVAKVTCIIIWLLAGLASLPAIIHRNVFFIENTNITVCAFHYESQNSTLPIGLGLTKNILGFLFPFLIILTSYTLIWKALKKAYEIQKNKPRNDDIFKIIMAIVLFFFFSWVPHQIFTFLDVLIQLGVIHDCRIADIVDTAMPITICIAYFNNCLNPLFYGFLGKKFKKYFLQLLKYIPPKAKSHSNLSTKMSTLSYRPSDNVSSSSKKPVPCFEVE
Experimental: Test B: This in vitro test involves the measurement of the antagonistic effects of the test compound against AII-induced contractions of isolated rabbit aorta, maintained in a physiological salt solution at 37° C. In order to ensure that the effect of the compound is specific to antagonism of AII, the effect of the test compound on noradrenaline-induced contractions may also be determined in the same preparation.

[2] = biological target: T2, AII receptors (cell surface membrane fraction, guinea pig adrenal gland) (Cavia porcellus, UniProt Q9WV26); experiment: Test A: displacement of radiolabelled AII binding to guinea pig adrenal membrane fraction; details: read-out: IC50 (concentration for 50% displacement of radiolabelled AII binding)
T2 construct: from tissue; host or cells: guinea pig adrenal gland, cell surface membrane fraction
T2 sequence (Q9WV26 1-359): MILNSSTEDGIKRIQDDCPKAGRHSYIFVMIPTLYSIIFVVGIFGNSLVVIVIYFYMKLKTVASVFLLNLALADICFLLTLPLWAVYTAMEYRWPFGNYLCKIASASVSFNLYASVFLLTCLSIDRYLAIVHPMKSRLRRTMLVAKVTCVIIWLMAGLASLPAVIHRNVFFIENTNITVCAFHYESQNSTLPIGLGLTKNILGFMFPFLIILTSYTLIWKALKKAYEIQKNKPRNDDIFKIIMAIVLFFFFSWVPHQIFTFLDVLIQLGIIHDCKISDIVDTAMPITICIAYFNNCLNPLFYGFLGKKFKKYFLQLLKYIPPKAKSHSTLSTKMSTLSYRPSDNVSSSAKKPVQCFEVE
Experimental: Test A: This in vitro procedure involves the incubation of the test compound initially at a concentration of 100 micromolar (or less) in a buffered mixture containing fixed concentrations of radiolabelled AII and a cell surface membrane fraction prepared from a suitable angiotensin target tissue. In this test, the source of cell surface membranes is the guinea pig adrenal gland which is well known to respond to AII. Interaction of the radiolabelled AII with its receptors (assessed as radiolabel bound to the particulate membrane fraction following removal of unbound radiolabel by a rapid filtration procedure such as is standard in such studies) is antagonized by compounds which also bind to the membrane receptor sites and the degree of antagonism (observed in the test as displacement of membrane-bound radioactivity) is determined readily by comparing the receptor-bound radioactivity in the presence of the test compound at the specified test concentration with a control value determined in the absence of the test compound. Using this procedure compounds showing at least 50% displacement of radiolabelled AII binding at a concentration of 10^-4 M are retested at lower concentrations to determine their potency. […]

[3] = system: angiotensin II-induced pressor responses; experiment: Test C: antagonism of angiotensin II-induced pressor responses in terminally-anaesthetised or conscious rats; type: in vivo; details: Rattus norvegicus, parenteral administration
Experimental: Test C: This in vivo test involves using terminally-anaesthetised or conscious rats in which an arterial catheter has been implanted under anaesthesia for the measurement of changes in blood pressure. The AII antagonistic effects of the test compound following oral or parenteral administration, are assessed against angiotensin II-induced pressor responses. To ensure that the effect is specific the effect of the test compound on vasopressin-induced pressor responses may also be determined in the same preparation.

- Kb [1]: 25.1 nM
- IC50 [2]: 100 nM
SMILES: CCCCc1nc2ccccc2n1Cc1ccc(C(=O)NS(=O)(=O)c2ccccc2)cc1 [Example 3, 4-[(2-butyl-1H-benzimidazol-1-yl)methyl]-N-phenylsulphonylbenzamide]
- ED50 [3]: 3 mg/kg
